Experimental data reported in patent publication EP4678638A1, “NEW E3 UBIQUITIN LIGASE LIGAND, PROTEIN DEGRADATION AGENT AND USE THEREOF” (priority 2023, dated 2024).

Molecular target: T1, human Cereblon WT GST-tagged protein (Homo sapiens, UniProt Q96SW2)
T1 construct: purchased CISBIO 64BDCRBNPEH
Assay: CRBN binding, HTRF (CEREBLON BINDING kit)
Conditions: HTRF; for inhibition at 0.5 µM / inhibition at 2 µM: Table II-2, CRBN binding screening; for inhibition at 0.5 µM: read-out: Inhibition rate (%) at 0.5µM; for inhibition at 2 µM: read-out: Inhibition rate (%) at 2 µM; for IC50: Table II-1, CRBN binding
Procedure: The CEREBLON BINDING kits (specification: 10,000 tests; product number: Catalog # 64BDCRBNPEH; CISBIO company) was used to determine the CRBN binding ability of the compounds to be tested through a HTRF method (homogeneous time-resolved fluorescence). The specific methods are as follows: • 1. […] Then, 2.5 µL of human Cereblon WT GST-tagged protein solution was added to each well. Finally, 5 µL of the thoroughly mixed Thalidomide-Re reagent and GST Eu antibody working solution were added to each of the aforementioned wells. […] The blank control wells were sequentially added with 2.5 µL of diluent #9 (1X) solution, 2.5 µL of binding buffer, and 5 µL of thoroughly mixed Thalidomide-Re reagent and GST Eu antibody working solution. • 4. After sealing and incubating the solutions in the aforementioned wells at room temperature for 3 hours, the […] at emission wavelengths of 620 nm and 665 nm were detected by the HTRF method using a Spark microplate reader (V3.1 SP1).

T1 sequence (Q96SW2 whole entry): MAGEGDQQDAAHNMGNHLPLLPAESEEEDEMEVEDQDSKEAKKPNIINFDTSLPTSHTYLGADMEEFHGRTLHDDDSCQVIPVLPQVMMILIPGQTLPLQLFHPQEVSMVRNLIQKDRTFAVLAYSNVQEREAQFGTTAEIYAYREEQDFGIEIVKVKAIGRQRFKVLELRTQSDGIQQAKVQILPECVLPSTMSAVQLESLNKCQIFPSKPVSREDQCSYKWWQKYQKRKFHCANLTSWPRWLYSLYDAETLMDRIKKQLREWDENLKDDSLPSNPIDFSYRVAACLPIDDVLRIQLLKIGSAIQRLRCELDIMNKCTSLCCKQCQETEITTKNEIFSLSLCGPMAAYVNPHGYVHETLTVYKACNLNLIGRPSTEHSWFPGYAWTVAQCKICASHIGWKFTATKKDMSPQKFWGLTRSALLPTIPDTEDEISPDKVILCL

Structure (SMILES) | inhibition at 0.5 µM | inhibition at 2 µM | IC50
O=C1CCN(c2cncc(CN3CCC(n4cc(NC(=O)c5cnn6ccc(N7C[C@H]8C[C@@H]7CO8)nc56)c(C(F)F)n4)CC3)c2)C(=O)N1 [GT-07774, 5-((1R,4R)-2-oxa-5-azabicyclo[2.2.1]heptan-5-yl)-N-(3-(difluoromethyl)-1-(1-((5-(2,4-dioxotetrahydropyrimidin-1(2H)-yl)pyridin-3-yl)methyl)piperidin-4-yl)-1H-pyrazol-4-yl)pyrazolo[1,5-a]pyrimidine-3-carboxamide] | 40 to 53% | 80 to 100% | –
O=C1CCN(c2cccc(CN3CCN(C4CCN(c5ccc([C@@H]6c7ccc(O)cc7CC[C@@H]6c6ccccc6)cc5)CC4)CC3)c2)C(=O)N1 [GT-04685, 1-(3-((4-(1-(4-((1R,2S)-6-hydroxy-2-phenyl-1,2,3,4-tetrahydronaphthalen-1-yl)phenyl)piperidin-4-yl)piperazin-1-yl)methyl)phenyl)dihydropyr imidine-2,4(1H,3H)-dione] | – | – | 500 to 1000 nM
Cn1cc(-c2cc(S(C)(=O)=O)ccc2OCc2ccc(N3CCC(=O)NC3=O)c(F)c2)c2cc[nH]c2c1=O [GT-04643, 1-(2-fluoro-4-((2-(6-methyl-7-oxo-6,7-dihydro-1H-pyrrolo[2,3-c]pyridin-4-yl)-4-(methylsulfonyl)phenoxy)methyl)phenyl)dihydropyrimidine-2,4(1H,3H)-dione] | 30 to 40% | 60 to 80% | –
O=C1CCN(c2cnc(F)c(CN3CCC(n4cc(NC(=O)c5cnn6ccc(N7C[C@H]8C[C@@H]7CO8)nc56)c(C(F)F)n4)CC3)c2)C(=O)N1 [GT-07791, 5-((1R,4R)-2-oxa-5-azabicyclo[2.2.1]heptan-5-yl)-N-(3-(difluoromethyl)-1-(1-((5-(2,4-dioxotetrahydropyrimidin-1(2H)-yl)-2-fluoropyridin-3-yl)methyl)piperidin-4-yl)-1H-pyrazol-4-yl)pyrazolo[1,5-a]pyrimidine-3-carboxamide] | 30 to 40% | 60 to 80% | –
Cc1ccc(C(=O)Nc2ccc(N3CCC(N(C)Cc4ccc(C5CCC(=O)NC5=O)cc4)CC3)c(C(F)(F)F)c2)cc1C#Cc1cnc2cccnn12 (stereo not drawn) [GT-04106, N-(4-(4-((4-(2,6-dioxopiperidin-3-yl)benzyl)(methyl)amino)piperidin-1-yl)-3-(trifluoromethyl)phenyl)-3-(imidazo[1,2-b]pyridazin-3-ylethynyl)-4-methylbenzamide] | 40 to 53% | 60 to 80% | –
O=C1CCN(c2cnc(F)c(CN3C[C@H]4C[C@@H]3CN4c3ccc(-c4cc(F)c5c(c4)C(=O)N(C(C(=O)Nc4nccs4)c4ncn6c4CCC6)C5)cc3)c2)C(=O)N1 (stereo partly drawn) [GT-07825, 2-(6,7-dihydro-5H-pyrrolo[1,2-c]imidazol-1-yl)-2-(6-(4-((1R,4R)-5-((5-(2,4-dioxotetrahydropyrimidin-1(2H)-yl)-2-fluoropyridin-3-yl)methyl)-2,5-diazabicyclo[2.2.1]heptan-2-yl)phenyl)-4-fluoro-1-oxoisoindolin-2-yl)-N-(thiazol-2-yl)acetamide] | 60 to 80% | 80 to 100% | –
O=C1CCN(c2ccc(CCl)nc2)C(=O)N1 [GT-06984, 1-(6-(Chloromethyl)pyridin-3-yl)dihydropyrimidine-2,4(1H,3H)-dione] | 30 to 40% | 60 to 80% | –
O=C1CCN(c2cnc(F)c(CN3CCC(n4cc(NC(=O)c5cnn6ccc(N7CCOCC7)nc56)c(C(F)F)n4)CC3)c2)C(=O)N1 [GT-07789, N-(3-(difluoromethyl)-1-(1-((5-(2,4-dioxotetrahydropyrimidin-1(2H)-yl)-2-fluoropyridin-3-yl)methyl)piperidin-4-yl)-1H-pyrazol-4-yl)-5-morpholinopyrazolo[1,5-a]pyrimidine-3-carboxamide] | 20 to 30% | 60 to 80% | –
O=C1CCN(c2ccc(CN3CCN(C4CCN(c5ccc([C@@H]6c7ccc(O)cc7CC[C@@H]6c6ccccc6)cc5)CC4)CC3)c(F)c2)C(=O)N1 [GT-04687, 1-(3-fluoro-4-((4-(1-(4-((1R,2S)-6-hydroxy-2-phenyl-1,2,3,4-tetrahydronaphthalen-1-yl)phenyl)piperidin-4-yl)piperazin-1-yl)methyl)phenyl)dihydropyr imidine-2,4(1H,3H)-dione] | – | – | 1000 to 1900 nM

The next lines start with the values.

inhibition at 0.5 µM | inhibition at 2 µM | IC50 | Structure (SMILES)
20 to 30% | 60 to 80% | – | CN(C)C(=O)c1cc2cnc(Nc3ccc(N4CCN(Cc5cc(C6CCC(=O)NC6=O)cnc5F)CC4)cn3)nc2n1C1CCCC1 (stereo not drawn) [GT-07563, 7-cyclopentyl-2-((5-(4-((5-(2,6-dioxopiperidin-3-yl)-2-fluoropyridin-3-yl)methyl)piperazin-1-yl)pyridin-2-yl)amino)-N,N-dimethyl-7H-pyrrolo[2,3-d]pyrimidine-6-carboxamide]
10 to 20% | 60 to 80% | – | CN(c1nccnc1CNc1nc(Nc2ccc(N3CCN(Cc4ccc(C5CCC(=O)NC5=O)cc4)CC3)cc2)ncc1C(F)(F)F)S(C)(=O)=O (stereo not drawn) [GT-07399, N-(3-(((2-((4-(4-(4-(2,6-dioxopiperidin-3-yl)benzyl)piperazin-1-yl)phenyl)amino)-5-(trifluoromethyl)pyrimidin-4-yl)amino)methyl)pyrazin-2-yl)-N-methylmethanesulfonamide]
53 to 60% | 80 to 100% | – | CC(=O)c1c(C)c2cnc(Nc3ccc(N4CCN(Cc5ccc(C6CCC(=O)NC6=O)cn5)CC4)cn3)nc2n(C2CCCC2)c1=O (stereo not drawn) [GT-07483, 3-(6-((4-(6-((6-acetyl-8-cyclopentyl-5-methyl-7-oxo-7,8-dihydropyrido[2,3-d]pyrimidin-2-yl)amino)pyridin-3-yl)piperazin-1-yl)methyl)pyridin-3-yl)piperidine-2,6-dione]
53 to 60% | 80 to 100% | – | CC(=O)c1c(C)c2cnc(Nc3ccc(N4CCN(Cc5cncc(C6CCC(=O)NC6=O)c5)CC4)cn3)nc2n(C2CCCC2)c1=O (stereo not drawn) [GT-07485, 3-(5-((4-(6-((6-acetyl-8-cyclopentyl-5-methyl-7-oxo-7,8-dihydropyrido[2,3-d]pyrimidin-2-yl)amino)pyridin-3-yl)piperazin-1-yl)methyl)pyridin-3-yl)piperidine-2,6-dione]
40 to 53% | 60 to 80% | – | CNC(=O)c1ccccc1Nc1cc(Nc2cc(C)c(C3CCN(Cc4cc(C5CCC(=O)NC5=O)cnc4F)CC3)cc2OC(C)C)ncc1C(F)(F)F (stereo not drawn) [GT-07675, 2-((2-((4-(1-((5-(2,6-dioxopiperidin-3-yl)-2-fluoropyridin-3-yl)methyl)piperidin-4-yl)-2-isopropoxy-5-methylphenyl)amino)-5-(trifluoromethyl)pyridin-4-yl)amino)-N-methylbenzamide]
10 to 20% | 53 to 60% | – | COc1cc2nn(C3CCN(Cc4cncc(C5CCC(=O)NC5=O)c4)CC3)cc2cc1NC(=O)c1cccc(C(F)(F)F)n1 (stereo not drawn) [GT-07536, N-(2-(1-((5-(2,6-dioxopiperidin-3-yl)pyridin-3-yl)methyl)piperidin-4-yl)-6-methoxy-2H-indazol-5-yl)-6-(trifluoromethyl)picolinamide]
60 to 80% | 80 to 100% | – | CC(C)(O)c1cc2nn(C3CCN(Cc4cc(C5CCC(=O)NC5=O)cnc4F)CC3)cc2cc1NC(=O)c1cccc(C(F)(F)F)n1 (stereo not drawn) [GT-07793, N-(2-(1-((5-(2,6-dioxopiperidin-3-yl)-2-fluoropyridin-3-yl)methyl)piperidin-4-yl)-6-(2-hydroxypropan-2-yl)-2H-indazol-5-yl)-6-(trifluoromethyl)picolinamide]
